Measured values published in PubChem BioAssay (NCI).
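All cell lines were grown in 96-well plates and treated with compound for 48 hours. The concentration for full growth arrest is given as TGI.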

Legend:
Experiment in all cases: NCI anticancer screen, dose series, 48 h
[1] = tested on: IGROV1 ovarian
[2] = tested on: SF-268 CNS
[3] = tested on: PC-3 prostate
[4] = tested on: RPMI-8226 leukemia
[5] = tested on: NCI-H522 lung
[6] = tested on: HT29 colon
[7] = tested on: K-562 leukemia
[8] = tested on: HS 578T breast
[9] = tested on: SK-MEL-28 melanoma
[10] = tested on: LOX IMVI melanoma
[11] = tested on: UACC-62 melanoma
[12] = tested on: SK-OV-3 ovarian
[13] = tested on: MDA-MB-231 breast
[14] = tested on: OVCAR-8 ovarian
[15] = tested on: KM12 colon
[16] = tested on: 786-0 renal
[17] = tested on: HCT-15 colon
[18] = tested on: SN12C renal
[19] = tested on: SNB-75 CNS
[20] = tested on: MDA-MB-435
[21] = tested on: U251 CNS
[22] = tested on: SK-MEL-2 melanoma
[23] = tested on: NCI-H460 lung
[24] = tested on: DU-145 prostate
[25] = tested on: SNB-19 CNS
[26] = tested on: NCI-H226 lung
[27] = tested on: OVCAR-3 ovarian
[28] = tested on: BT-549 breast
[29] = tested on: NCI/ADR-RES ovarian
[30] = tested on: SF-295 CNS
[31] = tested on: SW-620 colon
[32] = tested on: MDA-N
[33] = tested on: MOLT-4 leukemia
[34] = tested on: M14 melanoma
[35] = tested on: HL-60(TB) leukemia
[36] = tested on: MCF7 breast
[37] = tested on: ACHN renal
[38] = tested on: HCT-116 colon
[39] = tested on: MALME-3M melanoma
[40] = tested on: SF-539 CNS
[41] = tested on: SR leukemia
[42] = tested on: HOP-62 NSCLC
[43] = tested on: EKVX NSCLC
[44] = tested on: TK-10 renal
[45] = tested on: A498 renal
[46] = tested on: OVCAR-4 ovarian
[47] = tested on: OVCAR-5 ovarian
[48] = tested on: UACC-257 melanoma
[49] = tested on: HCC-2998 colon
[50] = tested on: A549 NSCLC
[51] = tested on: UO-31 renal
[52] = tested on: CAKI-1 renal
[53] = tested on: SK-MEL-5 melanoma
[54] = tested on: CCRF-CEM leukemia
[55] = tested on: RXF 393 renal
[56] = tested on: NCI-H23 lung
[57] = tested on: COLO 205 colon
[58] = tested on: HOP-92 NSCLC
[59] = tested on: T-47D breast

`Clc1cc(Br)c2c3c(c(Br)cc(Cl)c13)C(Br)=C2Br` showed a TGI [1] of 36.5 µM, a TGI [2] of 70.4 µM and a TGI [3] of over 100 µM. It also gave a TGI [4] of 58.9 µM, a TGI [5] of 38.8 µM and a TGI [6] of 61.5 µM. The TGI [7] was over 100 µM, the TGI [8] was over 100 µM and the TGI [9] was over 100 µM. It also gave a TGI [10] of 32.2 µM, a TGI [11] of 79.7 µM and a TGI [12] of over 100 µM. The TGI [13] was 82 µM, the TGI [14] was 93 µM and the TGI [15] was over 100 µM. It also gave a TGI [16] of 47.7 µM, a TGI [17] of 37.6 µM and a TGI [18] of 44.7 µM. It also gave a TGI [19] of 71.7 µM, a TGI [20] of over 100 µM and a TGI [21] of over 100 µM. The TGI [22] was over 100 µM, the TGI [23] was over 100 µM and the TGI [24] was 90.9 µM. The TGI [25] was over 100 µM, the TGI [26] was over 100 µM and the TGI [27] was over 100 µM. For the same compound, the TGI [28] was 78 µM, the TGI [29] was 57.8 µM and the TGI [30] was over 100 µM. For the same compound, the TGI [31] was over 100 µM, the TGI [32] was over 100 µM and the TGI [33] was 45.6 µM. For the same compound, the TGI [34] was over 100 µM, the TGI [35] was 56 µM and the TGI [36] was over 100 µM. It also gave a TGI [37] of 36.3 µM, a TGI [38] of 40.3 µM and a TGI [39] of over 100 µM. It also gave a TGI [40] of 35.7 µM, a TGI [41] of 58.1 µM and a TGI [42] of over 100 µM. For the same compound, the TGI [43] was over 100 µM, the TGI [44] was 46.6 µM and the TGI [45] was over 100 µM. For the same compound, the TGI [46] was over 100 µM, the TGI [47] was over 100 µM and the TGI [48] was over 100 µM. For the same compound, the TGI [49] was 38.6 µM, the TGI [50] was over 100 µM and the TGI [51] was over 100 µM.
For `CN1CC[C@]2(c3cccc(O)c3)CC(=O)/C(=C/c3ccc(Cl)c(Cl)c3)[C@@H]1C2`, the TGI [1] was 3.72 µM, the TGI [2] was 3.66 µM and the TGI [3] was 1.42 µM. It also gave a TGI [52] of 2.32 µM, a TGI [4] of 0.901 µM and a TGI [6] of 2.22 µM. The TGI [7] was 1.1 µM, the TGI [8] was 6.59 µM and the TGI [53] was 3.1 µM. It also gave a TGI [9] of 3.28 µM, a TGI [10] of 0.327 µM and a TGI [13] of 2.4 µM. For the same compound, the TGI [14] was 4.35 µM, the TGI [15] was 2.06 µM and the TGI [16] was 2.23 µM. For the same compound, the TGI [17] was 2.52 µM, the TGI [18] was 2.29 µM and the TGI [19] was 1.55 µM. The TGI [20] was 1.4 µM, the TGI [21] was 2.14 µM and the TGI [54] was 2.85 µM. The TGI [23] was 3.39 µM, the TGI [24] was 3.01 µM and the TGI [25] was 3.48 µM. It also gave a TGI [26] of 4.7 µM, a TGI [28] of 3.14 µM and a TGI [29] of 6.76 µM. For the same compound, the TGI [30] was 2.86 µM, the TGI [31] was 2.41 µM and the TGI [32] was 1.83 µM. It also gave a TGI [33] of 0.71 µM, a TGI [34] of 3.08 µM and a TGI [35] of 0.464 µM. It also gave a TGI [36] of 9.41 µM, a TGI [55] of 1.92 µM and a TGI [37] of 2.38 µM. The TGI [38] was 2.47 µM, the TGI [56] was 4.33 µM and the TGI [39] was 2.85 µM. The TGI [40] was 4.52 µM, the TGI [41] was 10.3 µM and the TGI [43] was 3.03 µM. The TGI [44] was 3.48 µM, the TGI [45] was 3.69 µM and the TGI [47] was 3.18 µM. The TGI [48] was 2.93 µM, the TGI [49] was 2.77 µM and the TGI [50] was 3.36 µM. For the same compound, the TGI [57] was 2.96 µM, the TGI [58] was 2.57 µM and the TGI [51] was 2.61 µM.
Work on `COC(=O)c1c2c(cc3c1CC1(Cc4cc5c(cc4C1=O)CCC5)C3)CCC2` (configuration not stated) yielded a TGI [1] of over 100 µM, a TGI [2] of over 100 µM and a TGI [3] of over 100 µM. The TGI [52] was over 100 µM, the TGI [4] was 57.7 µM and the TGI [5] was over 100 µM. For the same compound, the TGI [6] was over 100 µM, the TGI [7] was over 100 µM and the TGI [8] was over 100 µM. For the same compound, the TGI [53] was 54.4 µM, the TGI [9] was over 100 µM and the TGI [10] was over 100 µM. For the same compound, the TGI [11] was over 100 µM, the TGI [12] was 93.8 µM and the TGI [13] was over 100 µM. For the same compound, the TGI [14] was over 100 µM, the TGI [15] was over 100 µM and the TGI [16] was over 100 µM. The TGI [17] was over 100 µM, the TGI [18] was over 100 µM and the TGI [19] was over 100 µM. It also gave a TGI [20] of over 100 µM, a TGI [21] of over 100 µM and a TGI [22] of over 100 µM. For the same compound, the TGI [54] was over 100 µM, the TGI [23] was over 100 µM and the TGI [24] was over 100 µM. It also gave a TGI [25] of over 100 µM, a TGI [26] of over 100 µM and a TGI [27] of over 100 µM. It also gave a TGI [28] of over 100 µM, a TGI [30] of over 100 µM and a TGI [31] of over 100 µM. The TGI [32] was over 100 µM, the TGI [33] was over 100 µM and the TGI [34] was over 100 µM. The TGI [35] was over 100 µM, the TGI [36] was over 100 µM and the TGI [37] was over 100 µM. It also gave a TGI [38] of over 100 µM, a TGI [56] of over 100 µM and a TGI [39] of over 100 µM. For the same compound, the TGI [40] was over 100 µM, the TGI [42] was over 100 µM and the TGI [43] was over 100 µM. The TGI [44] was over 100 µM, the TGI [45] was over 100 µM and the TGI [59] was over 100 µM. The TGI [46] was over 100 µM, the TGI [47] was over 100 µM and the TGI [48] was over 100 µM. The TGI [49] was over 100 µM, the TGI [50] was over 100 µM and the TGI [57] was over 100 µM. It also gave a TGI [51] of over 100 µM.
For `NCCC(=O)N[C@@H](Cc1cc(O)c(O)c(SCC(NC(=O)CC[C@H](N)C(=O)O)C(=O)NCC(=O)O)c1)C(=O)O` (some centres not stated), the TGI [1] was over 50 µM, the TGI [2] was over 50 µM and the TGI [3] was over 50 µM. For the same compound, the TGI [52] was over 50 µM, the TGI [4] was over 50 µM and the TGI [5] was over 50 µM. It also gave a TGI [6] of over 50 µM, a TGI [7] of over 50 µM and a TGI [9] of over 50 µM. The TGI [11] was over 50 µM, the TGI [12] was over 50 µM and the TGI [13] was over 50 µM. For the same compound, the TGI [15] was over 50 µM, the TGI [16] was over 50 µM and the TGI [17] was over 50 µM. For the same compound, the TGI [18] was over 50 µM, the TGI [19] was over 50 µM and the TGI [20] was over 50 µM. The TGI [21] was over 50 µM, the TGI [22] was over 50 µM and the TGI [23] was over 50 µM. It also gave a TGI [24] of over 50 µM, a TGI [25] of over 50 µM and a TGI [26] of over 50 µM. It also gave a TGI [27] of over 50 µM, a TGI [28] of over 50 µM and a TGI [29] of over 50 µM. It also gave a TGI [30] of over 50 µM, a TGI [31] of over 50 µM and a TGI [32] of over 50 µM. For the same compound, the TGI [33] was over 50 µM, the TGI [34] was over 50 µM and the TGI [36] was over 50 µM. It also gave a TGI [55] of over 50 µM, a TGI [37] of over 50 µM and a TGI [38] of over 50 µM. It also gave a TGI [56] of over 50 µM, a TGI [39] of over 50 µM and a TGI [42] of over 50 µM. The TGI [43] was over 50 µM, the TGI [44] was over 50 µM and the TGI [45] was over 50 µM. It also gave a TGI [46] of over 50 µM, a TGI [47] of over 50 µM and a TGI [48] of over 50 µM. The TGI [49] was over 50 µM, the TGI [50] was over 50 µM and the TGI [57] was over 50 µM. The TGI [58] was over 50 µM and the TGI [51] was over 50 µM.
